Series [1] in a line: Body weight in SHR hypertensive rats. The class given is in vivo, Male SHR. As to conditions: oral once a day 5, 10 then 15 mg/kg. Here is the method: (§1) Male SHR were provided by Charles River Laboratories (USA). Until the experiments were carried out, the animals have had free access to feed and water. The room temperature was kept at 22±2° C. and the light/dark cycle was of 12 hours. All procedures were submitted to the Animal Experimentation Ethics Committee.
Distinct rat groups were orally treated, once a day, with 5 mg/kg of compound 5a during the first 4 days, 10 mg/kg during the next 4 days and 15 mg/kg until the end of the treatment period or vehicle (control) for the same days. Similarly, another rat group received metformin (reference drug used for lowering glucose serum levels) in a 300 mg/kg dose, orally, from day 1 to the end of the treatment. Rats were weighted in a CHYO MK2000B precision weight chamber.

Another series has as its system SHR hypertensive rats. Nature of the series: Plasma cholesterol levels test in SHR hypertensive rats. As to conditions: 25 days of treatment (15 mg/Kg) oral, effect more pronounced for 5a and 7a. The series is classed as in vivo, Male SHR. On the procedure:
(§2) Distinct rat groups were orally treated, once a day, with 5 mg/kg of compounds 4a or 5a or 6a during the first 4 days, 10 mg/kg during the next 4 days and 15 mg/kg until the end of the treatment period or vehicle (control) for the same days. Similarly, another rat group received metformin (MET) (reference drug used for lowering glucose serum levels) in a 300 mg/kg dose, orally, from day 1 to the end of the treatment. Plasma cholesterol levels were measured in triplicate 12 hours after drug administration by the cholesterol oxidase/peroxidase method (BioSystems S.A, Barcelona, Spain). Blood samples were obtained by femoral vein punction. This method was chosen because of its noninvasive character, enabling daily measurements with the same rats throughout the entire treatment.
as §1
as §2, with “metformin” for “metformin (MET)”, “Blood pressure was” for “Plasma cholesterol levels were”, “4” for “12”, “administration in warmed warmed, restrained, conscious rats” for “administration”, “tail-cuff” for “cholesterol oxidase/peroxidase”, “with a computerized oscillometric system recorder (Nyprem, Cibertec).” for “(BioSystems S.A, Barcelona, Spain). Blood samples were obtained by femoral vein punction.”

For a further series, the system named is female Swiss mice. Nature of the series: Acute oral toxicology study in a mice model. As to conditions: oral 2000 mg/kg single dose, observation for 14 days. The series is classed as in vivo. On the procedure: The experiments were conducted using female Swiss mice (20-30 g), housed under a 12-h light-dark cycle, with controlled humidity (60-80%), and temperature (22±1° C.). Food and water were freely available to the mice.
Female mice (n=6) were orally (2000 mg/kg) administered with a single dose of 4a, 5a, and 7a for the observation of acute signs of toxicity until 14 days. […] The observations comprised the behavior and manifestations of the toxic symptoms, and were carried out according to the Guidelines of the Organization for Economic Cooperation and Development (OECD, 2008).
All compounds were dissolved in sterile saline and were administered by oral gavage to mice based in the weight, for example 20 g received 20 μL.
The data are expressed as mean±S.E.M. of experiments. Statistical significance was determined through one-way analysis of variances (ANOVA), followed by either Newman-Keuls test. A p<0.05 was considered statistically significant. Graphs were drawn and statistical analysis was carried out using GraphPad Prism version 5.00 for Windows (GraphPad Software, San Diego, Calif., USA).

Series [2] relates to Drosophila melanogaster (Oregon-R strain). Nature of the series: Toxicology study: larva-to-adult viability and development time. Particulars: in vivo. The source says:
The purpose of this study was to test and compare the potential toxic effects of compounds 5a, 6a and 7a on the larva-to-adult viability and development time in a Drosophila melanogaster (Oregon-R) flies. These studies have a relevant predictive role with the aim to anticipate possible adverse toxicological effects that may happen during preclinical studies with animal, preferably mammals. In addition, the data provided are highly quantitative.
Drosophila melanogaster (Oregon-R) flies were obtained by the University of the Balearic Islands (Spain). […] The larvae were seeded on standard food supplemented with the appropriate dose of compounds tested. Each compound was tested at 1, 10, 100, 1000 and 2000 μg/ml dissolved in standard food.
Fly adults were transferred from the serial transfer system to bottles with fresh food for 24 h. Adults 5 days old were placed on egg collecting devices (layers) containing a mixture of agar, water, acetic acid, and ethyl alcohol, with a drop of active yeast on it. Every 2 h., the layer glasses were changed, in this way, the eggs of a glass have similar age, with a maximum difference of 2 h. among them. The glasses of the layers were kept at 25° C. for at least 22 h. in Petri dishes until larvae hatched. Fifty larvae were picked with a lancet under a stereoscopic microscope and were seeded into 10×2 cm vials with 5 ml food. Vials were supplemented with 4a, 5a and 7a at 1, 10 and 100 μg/ml. As positive control we used cupric acetate (toxic) at 350 μg/ml.
The number of adult flies which emerged from each vial was counted daily until the exhaustion of the culture. The parameters studied were the larvae-to-adult viability (V) and development time.
Viability is expressed as V=NA/NL, where NL is the input number of larvae ([…] in our case) and NA the output number of adults emerging from these NL larvae. Development time was measured in days by the formula DT=ΣNidi/ΣNi where Ni is the number of flies emerging on the day di after the larvae were placed in the medium.
The data are expressed as the mean±SEM values from 3 independent experiments involving triplicate vials at the number of flies indicated.

Turning to `COc1ccc(-c2nc(C(=O)NCCCN)cc3c2[nH]c2ccccc23)cc1` [Compound 5a, N(-propylamine)-1-benzosubstituted-β-carboline-3-carboxamide], the “SHR body weight compared to control untreated rats” value in series [1] is reported as “statistically significant effect in lowering SHR body weight”. Further, the plasma cholesterol levels result in the series on SHR hypertensive rats is listed as “inhibition of plasma cholesterol levels”. Further, the “mortality or behavioral disorders (acute signs of toxicity)” value in the series on female Swiss mice is “did not produce mortality or any behavioral disorders”. Also, the “larvae-to-adult viability and development time” value in series [2] was “not affected”.

Values taken from patent US9440966B2, “Compounds for treatment of metabolic syndrome” (SJT MOLECULAR RESEARCH, S.L., priority 2011, dated 2016).
